We go through six molecules from PMC3599540, “4-Aryl-4H-naphthopyrans derivatives: one-pot synthesis, evaluation of Src kinase inhibitory and anti-proliferative activities” (DARU Journal of Pharmaceutical Sciences, 2012).

One experiment has as its target T1, c-Src kinase (Homo sapiens, UniProt P12931).
T1 construct: purchased Cell Signaling Technology (Danvers, MA, USA) 7776
The experiment is described as follows: c-Src kinase activity assay (HTScan Src Kinase Assay Kit). The following applies: concentration that inhibited enzyme activity by 50%; triplicate; read-out: IC50 (inhibition of Src kinase activity). Type of experiment: biochemical. The protocol: Streptavidin-coated plates were purchased from Pierce (Rockford, IL, USA). […] The reaction mixture was incubated for 30 min at room temperature. The kinase reaction was stopped with the addition of 50 μL of 50 mM EDTA (pH 8.0). […] At the end of the incubation, the wells were washed three times with 200 μL of 0.05% Tween-20 in PBS buffer (PBS/T). After that to each well was added 100 μL of phosphotyrosine antibody (P-Tyr-100) (1:1000 dilution in PBS/T with 1% BSA) and the wells were incubated for another 60 min. After washing three times with 0.05% Tween-20 in PBS/T, the wells were incubated with 100 μL secondary anti-mouse IgG antibody, which was HRP-conjugated (1:500 dilution in PBS/T with 1% BSA) for next 30 min at room temperature. The wells were washed five times with 0.05% Tween-20 in PBS and then were incubated with 100 μL of 3,3',5,5'-tetramethylbenzidine dihydrochloride (TMB) substrate for 5 min. The reaction was stopped by adding 100 μL/well of stop solution to each well and mixed well and read the absorbance at 450 nm using a microplate reader (Molecular devices, spectra Max M2). IC50 values of the compounds were calculated using ORIGIN 6.0 (origin lab) software. […] All the experiments were carried out in triplicate.

Experiment [1] concerns mesenchymal stem cell proliferation. Also noted: method as in PMID 9562601. The note with it: cited from earlier work.
Experiment [2] has as its system breast carcinoma (BT-20) cell line. The experiment is described as follows: Cell proliferation assay (CellTiter 96) in BT-20 cells. It is filed as cell-based. The following applies: DOX 10 μM, 72 h incubation, relative to DMSO control. On the procedure: Breast carcinoma BT-20 (ATCC no. HTB-19) cell lines were obtained from American Type Culture Collection. Cells were grown on 75 cm^2 cell culture with EMEM medium for breast carcinoma and supplemented with 10% fetal bovine serum (FBS), and 1% penicillin-streptomycin solution (10,000 units of penicillin and 10 mg of streptomycin in 0.9% NaCl) in a humidified atmosphere of 5% CO2, 95% air at 37°C.
Cell proliferation assay of compounds was evaluated in BT-20 cells, and was compared with that of doxorubicin (DOX)[38]. Cell proliferation assay was carried out using CellTiter 96 aqueous one solution cell proliferation assay kit (Promega, USA). Briefly, upon reaching about 75-80% confluence, 5000 cells/well were plated in 96-well microplate in 100 μL media. After seeding for 72 h, the cells were treated with 50 μM compound in triplicate. […] The absorbance of the formazan product was measured at 490 nm using microplate reader. The blank control was recorded by measuring the absorbance at 490 nm with wells containing medium mixed with CellTiter 96 aqueous solution but no cells. Results were expressed as the percentage of the control (DMSO without compound set at 100%). The percentage of cell survival was calculated as (OD value of cells treated with test compound - OD value of culture medium) / (OD value of control cells – OD value of culture medium) × 100%. […]

T1 sequence (P12931 whole entry): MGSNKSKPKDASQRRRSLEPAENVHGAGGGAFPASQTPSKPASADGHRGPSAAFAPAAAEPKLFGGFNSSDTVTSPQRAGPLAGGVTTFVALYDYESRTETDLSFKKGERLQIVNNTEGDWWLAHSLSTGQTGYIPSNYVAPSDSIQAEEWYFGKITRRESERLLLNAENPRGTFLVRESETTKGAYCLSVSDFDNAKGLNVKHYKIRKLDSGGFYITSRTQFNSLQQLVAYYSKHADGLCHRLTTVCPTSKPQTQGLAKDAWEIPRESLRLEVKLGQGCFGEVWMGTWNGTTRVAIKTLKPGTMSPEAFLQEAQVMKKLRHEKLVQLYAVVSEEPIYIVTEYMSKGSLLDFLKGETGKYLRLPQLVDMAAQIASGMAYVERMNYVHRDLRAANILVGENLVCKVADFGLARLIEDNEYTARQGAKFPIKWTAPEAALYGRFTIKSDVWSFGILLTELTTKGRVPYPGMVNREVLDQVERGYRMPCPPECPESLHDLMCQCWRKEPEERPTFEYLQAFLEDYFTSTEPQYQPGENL

Take `N#CC1=C(N)Oc2c(ccc3ccccc23)C1c1ccccc1Cl` (stereo not drawn) [Compound 4d]: the IC50 (commonly the concentration needed to halve the response being measured) on c-Src kinase was determined as 34.7 µM.
The same measure, in the same setting: to `N#CC1=C(N)Oc2ccc3ccccc3c2C1c1cccc(Cl)c1` (stereo not drawn) [Compound 4j] belongs 41.7 µM; to `N#CC1=C(N)Oc2ccc3ccccc3c2C1c1cccc(O)c1` (stereo not drawn) [Compound 4m], 33.8 µM.
Same read-out and setting: to `COc1ccc(C2C(C#N)=C(N)Oc3ccc4ccccc4c32)cc1` (stereo not drawn) [Compound 4n] belongs 34.5 µM.
With `CSc1ccc(C2C(C#N)=C(N)OC3=C2CCc2ccccc23)cc1` (stereo not drawn) [compound B, 4-aryl-4H-5,6-dihydronaphtho[1,2-b]pyran], the IC50 in experiment [1] was 13 µM.
As to `COc1cccc2c1C(=O)c1c(O)c3c(c(O)c1C2=O)C[C@@](O)(C(=O)CO)C[C@@H]3O[C@H]1C[C@H](N)[C@H](O)[C@H](C)O1` [doxorubicin], in experiment [2], the “Inhibition of BT-20 cell growth (positive control)” value came out at 25%.
